In patent US20160159814A1, “GLYCINE TRANSPORTER INHIBITOR” (TAISHO PHARMACEUTICAL CO., LTD., priority 2013, published 2016):
Where two headings read alike, the source gives them in different places.

Target: T1, human type 1 glycine transporter (GlyT1) (Homo sapiens, UniProt P48067)
T1 construct: T98G cells (glioma cells) expressing human type 1 glycine transporter (GlyT1) were used; endogenous in cells; host or cells: T98G cells (human glioma cells)
T1 sequence (P48067 1-706): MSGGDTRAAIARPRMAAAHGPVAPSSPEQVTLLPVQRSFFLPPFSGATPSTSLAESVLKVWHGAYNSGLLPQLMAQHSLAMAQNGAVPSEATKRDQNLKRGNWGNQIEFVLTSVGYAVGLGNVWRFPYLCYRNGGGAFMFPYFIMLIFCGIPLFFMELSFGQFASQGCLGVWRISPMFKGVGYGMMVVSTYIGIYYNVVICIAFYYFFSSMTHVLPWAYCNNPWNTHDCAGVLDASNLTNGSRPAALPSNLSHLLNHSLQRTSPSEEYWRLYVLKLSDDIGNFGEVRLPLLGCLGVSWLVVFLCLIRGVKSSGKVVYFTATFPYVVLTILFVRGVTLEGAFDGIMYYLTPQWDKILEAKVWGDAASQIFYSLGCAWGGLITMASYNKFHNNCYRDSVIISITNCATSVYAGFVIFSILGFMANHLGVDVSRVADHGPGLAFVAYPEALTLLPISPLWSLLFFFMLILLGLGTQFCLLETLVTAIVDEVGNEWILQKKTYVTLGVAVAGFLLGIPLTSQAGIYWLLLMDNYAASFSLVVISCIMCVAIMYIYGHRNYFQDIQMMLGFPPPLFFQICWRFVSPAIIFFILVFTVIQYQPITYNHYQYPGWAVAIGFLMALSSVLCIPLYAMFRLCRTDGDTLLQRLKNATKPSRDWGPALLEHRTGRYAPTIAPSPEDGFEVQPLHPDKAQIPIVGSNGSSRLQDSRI
Assay: Glycine uptake inhibition experiment ([3H] glycine uptake in T98G cells expressing GlyT1)
Assay type: cell-based
Protocol: Glycine Uptake Inhibition Experiment
A glycine uptake experiment was conducted in accordance with the method published in Neuron, 8, 927-935, 1992. In the experiment, T98G cells (glioma cells) expressing human type 1 glycine transporter (GlyT1) were used. The T98G cells were seeded in a 96-well plate at 2.0×10^4 cells/well and cultured overnight in a CO2 incubator. The test substance was dissolved in a 100% DMSO solution and then dissolved in a 10 mM HEPES buffer solution (pH 7.4) containing 150 mM sodium chloride, 1 mM calcium chloride, 5 mM potassium chloride, 1 mM magnesium chloride, 10 mM glucose and 0.2% bovine serum albumin. After removing the cell culture medium, the test substance was subjected to a 10-min pretreatment. Subsequently, the test substance and [^3H] glycine (final concentration: 250 nM) were added to the cells and reaction was performed at room temperature for 15 minutes. After the end of the reaction, the extracellular fluid was aspirated with a manifold to remove excess labeled glycine present outside the cells, and then the cells were lysed with a 0.5 M aqueous sodium hydroxide solution. The glycine content in the cells was determined by measuring the radioactivity in the cell lysate with a liquid scintillation counter. Glycine uptake in the presence of 10 μM ALX5407 was defined as non-specific uptake, and the value calculated by subtracting the amount of the non-specific uptake from the total uptake in the absence of 10 μM ALX5407 was defined as specific uptake. In addition, glycine uptake inhibitory activity (IC50 value) was calculated from an inhibition curve at the concentrations of each test substance ranging from 10^−9 to 10^−5 M. It should be noted that ALX5407 is an HCl salt of N-[(3R)-3-([1,1′-biphenyl]-4-yloxy)-3-(4-fluorophenyl)propyl]-N-methylglycine.

Row | IC50 (glycine uptake inhibition) [nM] | SMILES | other results
1 | 60 | N#Cc1cccc(CN2C(=O)C(F)(F)c3c(C(O)C(F)(F)F)cccc32)n1 (single isomer, unassigned) [Compound 19, 6-{[3,3-difluoro-2-oxo-4-(2,2,2-trifluoro-1-hydroxyethyl)-2,3-dihydro-1H-indol-1-yl]methyl}pyridine-2-carbonitrile] | 
2 | 38 | O=C1N(Cc2cncc(Cl)c2)c2cccc(C(O)C(F)(F)F)c2C1(F)F (single isomer, unassigned) [Compound 23, 1-[(5-chloropyridin-3-yl)methyl]-3,3-difluoro-4-(2,2,2-trifluoro-1-hydroxyethyl)-1,3-dihydro-2H-indol-2-one] | 
3 | 39 | C[C@H](O)c1cccc2c1C(F)(F)C(=O)N2Cc1cncc(C(F)(F)F)c1 [Compound 121] | 
4 |  | C[C@H](O)c1cccc2c1C(F)(F)C(=O)N2Cc1ccc(Cl)c(Cl)n1 [Compound 244, 1-[(5,6-dichloropyridin-2-yl)methyl]-3,3-difluoro-4-[(1S)-1-hydroxyethyl]-1,3-dihydro-2H-indol-2-one] | IC50: 9.7 nM
5 | 62 | O=C1N(Cc2cnc3ccccc3c2)c2cccc([C@@H](O)C(F)(F)F)c2C1(F)F [Compound 133, 3,3-difluoro-1-(quinolin-3-ylmethyl)-4-[(1R)-2,2,2-trifluoro-1-hydroxyethyl]-1,3-dihydro-2H-indol-2-one] | 
6 | 300 | CC(O)c1cccc2c1C(F)(F)C(=O)N2Cc1cccc(Cl)n1 (single isomer, unassigned) [Compound 5, 1-[(6-chloropyridin-2-yl)methyl]-3,3-difluoro-4-(1-hydroxyethyl)-1,3-dihydro-2H-indol-2-one] | 
7 | 88 | O=C1N(Cc2ccnc(C(F)F)c2)c2cccc(C(O)C(F)F)c2C1(F)F (single isomer, unassigned) [Compound 152, 4-(2,2-difluoro-1-hydroxyethyl)-1-{[2-(difluoromethyl)pyridin-4-yl]methyl}-3,3-difluoro-1,3-dihydro-2H-indol-2-one] | 
8 | 27 | O=C1N(Cc2cccc(Cl)n2)c2cccc(C(O)C(F)F)c2C1(F)F (stereo not shown) [Compound 10, 1-[(6-chloropyridin-2-yl)methyl]-4-(2,2-difluoro-1-hydroxyethyl)-3,3-difluoro-1,3-dihydro-2H-indol-2-one] | 
9 | 31 | C[C@H](O)c1cccc2c1C(F)(F)C(=O)N2Cc1ccnc(C(F)F)c1 [Compound 117, 1-{[2-(difluoromethyl)pyridin-4-yl]methyl}-3,3-difluoro-4-[(1S)-1-hydroxyethyl]-1,3-dihydro-2H-indol-2-one] | 
10 |  | COc1ccc(CN2C(=O)C(F)(F)c3c([C@H](C)O)cccc32)cn1 [Compound 203, 3,3-difluoro-4-[(1S)-1-hydroxyethyl]-1-[(6-methoxypyridin-3-yl)methyl]-1,3-dihydro-2H-indol-2-one] | IC50: 31 nM
11 |  | N#Cc1cccc(CN2C(=O)C(F)(F)c3c(C(O)C(F)F)cccc32)n1 (single isomer, unassigned) [Compound 176, 6-{[4-(2,2-difluoro-1-hydroxyethyl)-3,3-difluoro-2-oxo-2,3-dihydro-1H-indol-1-yl]methyl}pyridine-2-carbonitrile] | IC50: 41 nM
12 | 57 | O=C1N(Cc2cncc(Cl)c2)c2cccc(C(O)C(F)F)c2C1(F)F (single isomer, unassigned) [Compound 120, 1-[(5-chloropyridin-3-yl)methyl]-4-(2,2-difluoro-1-hydroxyethyl)-3,3-difluoro-1,3-dihydro-2H-indol-2-one] | 
13 | 72 | O=C1N(Cc2cncc(Cl)c2)c2cccc(C(O)C(F)(F)F)c2C1(F)F (stereo not shown) [Compound 17, 1-[(5-chloropyridin-3-yl)methyl]-3,3-difluoro-4-(2,2,2-trifluoro-1-hydroxyethyl)-1,3-dihydro-2H-indol-2-one] | 
14 | 29 | C[C@H](O)c1cccc2c1C(F)(F)C(=O)N2Cc1ccc(C(F)(F)F)cn1 [Compound 112, 3,3-difluoro-4-[(1S)-1-hydroxyethyl]-1-{[5-(trifluoromethyl)pyridin-2-yl]methyl}-1,3-dihydro-2H-indol-2-one] | 
15 |  | N#Cc1cccnc1CN1C(=O)C(F)(F)c2c(C(O)C(F)F)cccc21 (single isomer, unassigned) [Compound 259, 2-{[4-(2,2-difluoro-1-hydroxyethyl)-3,3-difluoro-2-oxo-2,3-dihydro-1H-indol-1-yl]methyl}pyridine-3-carbonitrile] | IC50 (table section whose head prints (μm)): 1900 nM
16 | 38 | C[C@H](O)c1cccc2c1C(F)(F)C(=O)N2Cc1ccnc(C#N)c1 [Compound 40, 4-({3,3-difluoro-4-[(1S)-1-hydroxyethyl]-2-oxo-2,3-dihydro-1H-indol-1-yl}methyl)pyridine-2-carbonitrile] | 
17 |  | C[C@H](O)c1cccc2c1C(F)(F)C(=O)N2Cc1ccnc(C#N)c1F [Compound 173, 4-({3,3-difluoro-4-[(1S)-1-hydroxyethyl]-2-oxo-2,3-dihydro-1H-indol-1-yl}methyl)-3-fluoropyridine-2-carbonitrile] | IC50: 19 nM
18 | 58 | O=C1N(Cc2cc3ccccc3c(=O)[nH]2)c2cccc([C@@H](O)C(F)(F)F)c2C1(F)F [Compound 138, 3-({3,3-difluoro-2-oxo-4-[(1R)-2,2,2-trifluoro-1-hydroxyethyl]-2,3-dihydro-1H-indol-1-yl}methyl) isoquinolin-1(2H)-one] | 
19 | 54 | CC(O)c1cccc2c1C(F)(F)C(=O)N2Cc1nc2ccccc2c(=O)n1C (stereo not shown) [Compound 30, 2-{[3,3-difluoro-4-(1-hydroxyethyl)-2-oxo-2,3-dihydro-1H-indol-1-yl]methyl)-3-methylquinazolin-4(3H)-one] | 
20 | 31 | Cc1nc2ccccc2nc1CN1C(=O)C(F)(F)c2c([C@H](C)O)cccc21 [Compound 79, 3,3-difluoro-4-[(1S)-1-hydroxyethyl]-1-[(3-methylquinoxalin-2-yl)methyl]-1,3-dihydro-2H-indol-2-one] | 
21 | 150 | Cn1c(CN2C(=O)C(F)(F)c3c([C@@H](O)C(F)(F)F)cccc32)nc2ccccc21 [Compound 137] | 
22 | 96 | N#Cc1cccc(CN2C(=O)C(F)(F)c3c(C(O)C(F)(F)F)cccc32)n1 (stereo not shown) [Compound 13, 6-{[3,3-difluoro-2-oxo-4-(2,2,2-trifluoro-1-hydroxyethyl)-2,3-dihydro-1H-indol-1-yl]methyl}pyridine-2-carbonitrile] | 
23 | 34 | C[C@H](O)c1cccc2c1C(F)(F)C(=O)N2Cc1nc2ccccc2n1C [Compound 75, 3,3-difluoro-4-[(1S)-1-hydroxyethyl]-1-[(1-methyl-1H-benzimidazol-2-yl)methyl]-1,3-dihydro-2H-indol-2-one] | 
24 |  | COc1ccc(CN2C(=O)C(F)(F)c3c([C@H](C)O)cccc32)nc1C#N [Compound 217, 6-({3,3-difluoro-4-[(1S)-1-hydroxyethyl]-2-oxo-2,3-dihydro-1H-indol-1-yl}methyl)-3-methoxypyridine-2-carbonitrile] | IC50: 120 nM
25 |  | O=C1N(Cc2cncc(Cl)c2)c2c(F)ccc(C(O)C(F)F)c2C1(F)F (stereo not shown) [Compound 252, 1-[(5-chloropyridin-3-yl)methyl]-4-(2,2-difluoro-1-hydroxyethyl)-3,3,7-trifluoro-1,3-dihydro-2H-indol-2-one] | IC50: 46 nM
26 |  | C[C@H](O)c1cccc2c1C(F)(F)C(=O)N2Cc1ccc(C(F)(F)F)nc1Cl [Compound 239, 1-{[2-chloro-6-(trifluoromethyl)pyridin-3-yl]methyl}-3,3-difluoro-4-[(1S)-1-hydroxyethyl]-1,3-dihydro-2H-indol-2-one] | IC50: 220 nM
27 | 120 | N#Cc1cc(CN2C(=O)C(F)(F)c3c(C(O)C(F)(F)F)cccc32)ccn1 (stereo not shown) [Compound 14, 4-{[3,3-difluoro-2-oxo-4-(2,2,2-trifluoro-1-hydroxyethyl)-2,3-dihydro-1H-indol-1-yl]methyl}pyridine-2-carbonitrile] | 
28 | 38 | O=C1N(Cc2ccnc(Cl)c2)c2cccc([C@@H](O)C(F)(F)F)c2C1(F)F [Compound 32, 1-[(2-chloropyridin-4-yl)methyl]-3,3-difluoro-4-[(1R)-2,2,2-trifluoro-1-hydroxyethyl]-1,3-dihydro-2H-indol-2-one] | 
